The results in this text go back to patent US20240190841A1, “MODULATORS OF BCL6 PROTEOLYSIS AND ASSOCIATED METHODS OF USE” (Arvinas Operations, Inc., priority 2022, published 2024).

In general, DC50 refers to the concentration at which degradation of the target reaches its halfway point. The low end stands for degradation at low concentration, the high end for degradation only at high concentration. The Dmax is the largest share of the target that was removed. High values mean deep degradation, low ones shallow degradation.

Some results are limits rather than exact numbers.

The target in the experiment is T1, BCL6 (Homo sapiens, UniProt P41182).
T1 construct: endogenous in cells; host or cells: T47D breast cancer epithelial cells
In words: Immunofluorescence high content imaging of BCL6 degradation in T47D cells. The format is cell-based. Particulars: T47D breast cancer epithelial cells, 3 days incubation. On the procedure: Immunofluorescence Protocol for High Content Imaging of BCL6
T47D cells were seeded in 100 μl volume of RPMI11640-10% FBS in a 96-well black/clear bottom plates for adherent lines (Corning #3904).
Day 1. T47D breast cancer epithelial cells were seeded at a density so that confluence is ˜70-90% at endpoint. Cells were seeded at 7K/0.1 mL/well the morning prior to the addition of exemplary bifunctional degradation compounds.
Day 2. Prepare an 11 point 3-fold serial dilution of exemplary bifunctional compound in DMSO and aliquot an appropriate volume to cell growth media to generate a 2× final concentration of exemplary bifunctional compound. Add an equal volume (0.1 ml) of 2× exemplary bifunctional compound/media mix to previously plated cells, for a final top concentration in aqueous cell growth media of 0.1 or 1 μM. Incubate for 3 days at 37° C., 5% CO2.
Day 5 Immunofluorescence. Discard cell media. Wash wells with 200 μl of room temperature phosphate-buffered saline (PBS). Prepared 4% paraformaldehyde (PFA) from 16% PFA (Electron Microscopy Sciences #15710) using 1×PBS. Fifty μL of 4% PF was added to each well and incubate for 15 minutes at room temperature to fix the cells. The PFA was aspirated and the cells washed twice with PBS (200 μL)).
Prepared 0.1% Triton X-100 in PBS using 10% triton X-100 stock. The cells were permeabilized by adding 100 μL of the 0.1% Triton X-100 in PBS to each well to permeabilize cells and incubating at room temperature for 15 minutes. Cells were washed twice with PBS.
Prepared 3% BSA/PBS (from Thermofisher #37515 Blocker BSA in TBS, 10%), and 100 μL was added to each well. The cells were incubated for at least 1 hour at room temperature.
Prepared 1% BSA/PBS using Blocker BSA/PBS, and the 3% BSA/PBS removed from the wells.
For no primary antibody controls, 50 μL 1% BSA/PBS was added.
Primary antibody (BCL6 Rb Ab, CST-14895, Cell Signaling) was diluted 1:300 in 1% BSA/PBS using Blocker BSA/PBS.
Fifty μl of primary antibody added to all remaining wells (i.e., all wells other than the primary antibody controls) and the cells were incubated overnight at 4° C. with slow orbital movement.
Day 6. Contents of the wells was removed and the cells washed four times with 200 μL PBS. 1% BSA/PBS was prepared using Blocker BSA in PBS.
Diluted secondary antibody goat anti-Rb IgG Alexa-488 1:1000, and cell mask-Alexa-647 1:3000 in 1% BSA/PBS in the same mix. Add 50 μL to each well and incubate at room temperature for 1 hour in the dark.
Cells were washed three times with 200 μL PBS, and then incubated for 10 minutes with 100 μL Hoechst dye at 1 μg/mL (20 mM stock) to stain cell nuclei. Wells were then washed with 200 μl PBS, and 100 μL of PBS was added to each well and the plate covered plate with a plastic opaque cover. Plates were stored at […] and covered in aluminum foil until imaged.
Plates were equilibrated to room temperature prior to reading. The bottom of the plate was wiped with 70% isopropanol immediately prior to imaging.
Imaging: • 10×, 4 fields/well, include Top hat smoothing in the analysis protocol.
Supplies/Reagents: • 16% paraformaldehyde: Electron Microscopy Sciences #15710 • Hoechst: Thermofisher #62249 • Blocker BSA in PBS, 10%: Thermofisher #37515 • Blocker BSA in TBS, 10%: Thermofisher #37520 • Goat anti-rabbit or mouse AlexaFluor-488: Thermofisher #A11008 • Cell mask deep red AlexaFluor-647: Thermofisher #C10046 • Wash buffer, PBS: 20×PBS, Thermofisher
Regarding `CNC(=O)COc1cc2cc(Nc3nc(N4CCC(O[C@H]5C[C@H](N6CCN(c7ccc8c(c7F)n(C(C)C)c(=O)n8C7CCC(=O)NC7=O)CC6)C5)CC4)ncc3Cl)ccc2n(C(C)C)c1=O` (some centres unmarked) [Compound 28, 2-({6-[(5-chloro-2-{4-[(1r,3r)-3-{4-[1-(2,6-dioxopiperidin-3-yl)-4-fluoro-2-oxo-3-(propan-2-yl)-2,3-dihydro-1H-1,3-benzodiazol-5-yl]piperazin-1-yl}cyclobutoxy]piperidin-1-yl}pyrimidin-4-yl)amino]-2-oxo-1-(propan-2-yl)-1,2-dihydroquinolin-3-yl}oxy)-N-methylacetamide], the DC50 is less than 10 nM and the Dmax is not below 70%.

`CNC(=O)COc1cc2cc(Nc3nc(N4CCC(O[C@H]5C[C@H](N6CC[C@H](c7cc(C)c8c(c7F)CN([C@H]7CCC(=O)NC7=O)C8=O)[C@H](F)C6)C5)CC4)ncc3Cl)ccc2n(C(C)C)c1=O` [Compound 39, 2-({6-[(5-chloro-2-{4-[(1r,3r)-3-[(3S,4R)-4-{2-[(3S)-2,6-dioxopiperidin-3-yl]-4-fluoro-7-methyl-1-oxo-3H-isoindol-5-yl}-3-fluoropiperidin-1-yl]cyclobutoxy]piperidin-1-yl}pyrimidin-4-yl)amino]-1-isopropyl-2-oxoquinolin-3-yl}oxy)-N-methylacetamide] registered a DC50 of less than 10 nM and a Dmax not below 70%.

`CNC(=O)COc1cc2cc(Nc3nc(N4CCN(C(=O)CC5(O)CCN(c6ccc7c(c6F)CN(C6CCC(=O)NC6=O)C7=O)CC5)CC4)ncc3Cl)ccc2n(C(C)C)c1=O` (centres unmarked) [Compound 40, 2-{[6-({5-chloro-2-[4-(2-{1-[2-(2,6-dioxopiperidin-3-yl)-4-fluoro-1-oxo-3H-isoindol-5-yl]-4-hydroxypiperidin-4-yl}acetyl)piperazin-1-yl]pyrimidin-4-yl}amino)-1-isopropyl-2-oxoquinolin-3-yl]oxy}-N-methylacetamide] had a DC50 of less than 10 nM and a maximal degradation (Dmax) not below 70%.

`CNC(=O)COc1cc2cc(Nc3nc(N4CCC(O[C@H]5C[C@H](N6CCN(c7ccc8c(c7Cl)[C@H](C)N([C@H]7CCC(=O)NC7=O)C8=O)[C@H](C)C6)C5)CC4)ncc3Cl)ccc2n(C(C)C)c1=O` (single isomer, unassigned) [Compound 34]: the DC50 lay in the range of 10 to 50 nM and the Dmax was less than 50%.

With `CNC(=O)COc1cc2cc(Nc3nc(N4CCC(O[C@H]5C[C@H](N6CCN(c7ccc8c(c7Cl)[C@@H](C)N([C@@H]7CCC(=O)NC7=O)C8=O)[C@H](C)C6)C5)CC4)ncc3Cl)ccc2n(C(C)C)c1=O` (single isomer, unassigned) [Compound 33], the DC50 is less than 10 nM and the Dmax was not below 70%.

For the molecule `CNC(=O)COc1cc2cc(Nc3nc(N4CCC(CN5CCC(N6CCC(c7ccc8c(c7F)CN(C7CCC(=O)NC7=O)C8=O)CC6)C(F)(F)C5)CC4)ncc3Cl)ccc2n(C(C)C)c1=O` (centres unmarked) [Compound 43, 2-{[6-({5-chloro-2-[4-({4-[2-(2,6-dioxopiperidin-3-yl)-4-fluoro-1-oxo-2,3-dihydro-1H-isoindol-5-yl]-3′,3′-difluoro-[1,4′-bipiperidin]-1′-yl}methyl)piperidin-1-yl]pyrimidin-4-yl}amino)-2-oxo-1-(propan-2-yl)-1,2-dihydroquinolin-3-yl]oxy}-N-methylacetamide], the DC50 is less than 10 nM and the Dmax lay in the range of 50 to 70%.

Molecule `CNC(=O)COc1cc2cc(Nc3nc(N4CCC(O[C@H]5C[C@H](N6CCN(c7cc(F)c8c(c7)n(C(C)C)c(=O)n8C7CCC(=O)NC7=O)CC6)C5)CC4)ncc3Cl)ccc2n(C(C)C)c1=O` (some centres unmarked) [Compound 29, 2-({6-[(5-chloro-2-{4-[(1r,3r)-3-{4-[1-(2,6-dioxopiperidin-3-yl)-7-fluoro-2-oxo-3-(propan-2-yl)-2,3-dihydro-1H-1,3-benzodiazol-5-yl]piperazin-1-yl}cyclobutoxy]piperidin-1-yl}pyrimidin-4-yl)amino]-2-oxo-1-(propan-2-yl)-1,2-dihydroquinolin-3-yl}oxy)-N-methylacetamide] had a DC50 of less than 10 nM and a Dmax not below 70%.
